# Legend:
# Test in all cases: area under concentration-response curve (viability) (AUC (a.u.)); higher = less active
# Conditions in all cases: 48 h
# [1] = test system: CU-ACC1
# Method in brief: (§1)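 Concentration-response curves were fitted to obtain AC50 and area under the curve, keeping inhibitory or non-responding curve classes only. Data came from CellTiter-Glo luminescence, normalised per plate to vehicle and empty-well controls, in three adrenocortical carcinoma cell lines. These were treated in 1,536-well plates with library compounds at 11 concentrations and read after 48 h.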
# [2] = test system: CU-ACC2
# Method in brief: as §1
# [3] = test system: NCI-H295R
# Method in brief: as §1
Compound,area under concentration-response curve [1],area under concentration-response curve [2],area under concentration-response curve [3]
C[C@H](Nc1nc(N[C@H](C)C(F)(F)F)nc(-c2cccc(Cl)n2)n1)C(F)(F)F,547,606,–
CCCCCCCCCCCC/1=C(O)/C(=O)/C=C(O)\C1=O,534,593,–
COc1cc(/C=C(\C#N)C(=O)Nc2nnc(C(F)(F)F)s2)ccc1OCc1ccc(C(F)(F)F)cc1C(F)(F)F,450,488,–
N#Cc1ccc(NC(=O)Nc2ccccc2Br)c2nn[nH]c12,573,638,–
Nc1nc(-c2nn(Cc3ccccc3F)c3ncccc23)nc(N)c1N1CCOCC1,605,599,–
NC(=O)c1ccc(-c2nc(-c3ccc4c(c3)OCCO4)c(-c3ccccn3)[nH]2)cc1,–,366,–
Cc1cccc(N(C)C(=S)Oc2ccc3ccccc3c2)c1,428,497,–
N#Cc1cc(NC(=O)Nc2nnc(-c3ccncc3)s2)ccc1-c1cn[nH]c1,–,529,–
CCCCC[C@H](O)/C=C/[C@H]1[C@H](O)CC(=O)[C@@H]1CCCCCCC(=O)O,402,612,–
O=C(Nc1nnc(-c2ccco2)o1)c1cc(-c2ccccc2)nc2ccccc12,–,576,–
CCC[S+]([O-])c1ccc2[nH]c(NC(=O)OC)nc2c1 (stereo unspecified),502,595,–
O=C(O)c1ccc(-n2nc(-c3ccccc3O)nc2-c2ccccc2O)cc1,–,590,–
CC[C@H](C)C(=O)O[C@H]1C[C@H](O)\C=C2\C=C/[C@H](C)[C@H](CC[C@@H](O)C[C@@H](O)CC(O)=O)[C@@H]12,544,576,–
CC1=CC(=CC(=C1C\C2=N\CCN2)C)C(C)(C)C,–,595,–
NC(=O)c1ccc(I)c([N+](=O)[O-])c1,549,583,–
CN1CC/C(CC1)=C3\c4ccccc4CCc2sccc23,–,659,–
CCC\C1=C\C(=O)NC(=S)N1,467,545,–
O=[S+]([O-])(NCCNC/C=C/c1ccc(Br)cc1)c1cccc2cnccc12,–,595,–
CC(C)Cc1ccc(C(C)C(=O)O)cc1 (stereo unspecified),539,583,–
CN[C@H]1CN(C[C@@H]1OC)C2=NC3=C(C=C2)C(=O)C(=C\N3C4=NC=CS4)/C(O)=O,530,632,–

Compound,area under concentration-response curve [1],area under concentration-response curve [2],area under concentration-response curve [3]
CCOC(=N)c1nc2ccc3ncnc(Nc4cc(F)c(F)cc4Cl)c3c2s1,424,653,–
O=C/1\C=C(/OC(=C1)/C2=C3SC4=C(SC3=CC=C2)C=CC=C4)N5CCOCC5,550,650,–
CN1CCN(CC1)C2=CC=C(NC3=NC=C4\C=C(\C#N)C(=O)N(C5CCCC5)C4=N3)C=C2,548,588,–
CCO[C@@H]1OC(=O)C[C@@H]1NC(=O)[C@@H]1CCCN1C(=O)[C@@H](NC(=O)c1ccc(N)c(Cl)c1)C(C)(C)C,493,518,–
CNC(=O)C1=CC=C(C)C(=C1)N2C(=C/C(=C(/Br)C2=O)OCC3=C(F)C=C(F)C=C3)\C,–,547,–
COc1ccc(-n2nc(C(N)=O)c3c2C(=O)N(c2ccc(N4CCCCC4=O)cc2)CC3)cc1,–,374,–
OC1=CC=C2\C3=C(CNCC3)/C(=O)OC2=C1C4OCCCO4,–,623,–
COCCCOc1ccnc(CS(=O)c2nc3ccccc3[n-]2)c1C.[Na+] (stereo unspecified),–,564,–
COC1=CC=C(C=C1)C2CC(=N/N2C3=CC=C(C=C3)[S+](N)([O-])=O)\C4=CC=CC=C4 (stereo unspecified),–,648,–
O=[S+]([O-])(c1cccc2c(I)cccc12)N1CCCNCC1,–,649,–
COC1=CC=CC(=C1N)\C2=C\C(=O)C3=C(O2)C=CC=C3,–,591,–
CC(C)(N)C(=O)N[C@H](COCc1ccccc1)C(=O)N1CCC2(CC1)CN([S+](C)(=O)[O-])c1ccccc12,–,489,–
Nc1nc(F)nc2c1ncn2C1OC(COP(=O)(O)O)C(O)C1O (stereo unspecified),–,619,–
C=CC(=O)Nc1ccc(F)c(-c2ncnc3[nH]cc(C(=O)OCC)c23)c1,–,489,–
C=C1C(=O)OC2/C=C(/C)CC/C=C(/C)CCC12 (stereo unspecified),–,598,–
CC[C@@H](C)[C@H](NC(=O)[C@H](CC1CCCCC1)NC(=O)c1ccno1)C(=O)N1CCC2(CCc3ccccc32)CC1,–,118,–
CN1CCCN=C1/C=C/c1cccs1,–,211,–
CC\1=C/C=C\C=[N]1[Pt](N)(Cl)Cl,–,450,–
Cc1ccccc1C(=O)c1ccc(Nc2ccc(Br)cc2N)cc1Cl,–,502,–
CO[C@H]1C[C@@H]2CC[C@@H](C)[C@@](O)(O2)C(=O)C(=O)N2CCCC[C@H]2C(=O)O[C@H]([C@H](C)C[C@@H]2CC[C@@H](OP(C)(C)=O)[C@H](OC)C2)CC(=O)[C@H](C)/C=C(\C)[C@@H](O)[C@@H](OC)C(=O)[C@H](C)C[C@H](C)/C=C/C=C/C=C/1C,–,536,–

Compound,area under concentration-response curve [1],area under concentration-response curve [2],area under concentration-response curve [3]
NC1=NC(=O)N2CC12 (stereo unspecified),–,592,–
c1cnc2cc3c(cc2n1)C1CNCC3C1,536,–,563
O=C/1NC(=O)C(=C1C2=CN=C3C=CC=C[N]23)/C4=C[N]5CCN(CC6=C5C4=CC=C6)C(=O)N7CCOCC7,514,–,526
CC#C[C@]1(O)CC[C@H]2[C@@H]/3CCC/4=C/C(=O)CCC4=C3[C@H](C[C@]12C)C5=CC=C(C=C5)N(C)C,–,546,–
Cc1ncc(OC[C@@]2(c3cccc(F)c3)C[C@H]2C(=O)Nc2ccc(F)cn2)c(C)n1,457,–,516
COc1cc(N2CCN(C)CC2)ccc1Nc1ncc2c(n1)N(C)c1ccccc1C(=O)N2C,389,–,459
Nc1nc2cc(-c3ccc4ncc(C(=O)N5CCOCC5)n4c3)ccc2o1,514,–,478
CCc1ccc(CCOc2ccc(CC3SC(=O)NC3=O)cc2)nc1 (stereo unspecified),112,–,110
CC[C@@H]1[C@H](F)C(=O)N[C@@H]1COc1nccc2cc(C(N)=O)c(OC)cc12,472,–,532
Cc1c(F)ccc(C(=O)Nc2cc([N+](=O)[O-])ccc2N2CCN(C)CC2)c1Cl,457,–,434
C[C@@H](Nc1ncnc2[nH]c(-c3ccc(O)cc3)cc12)c1ccccc1,300,–,328
COCCOC(=O)C/1=C(C)/NC/2=C(C1C3=CC=CC(=C3)O)/C(=O)CC(C2)C4=C(OC)C=CC=C4 (stereo unspecified),446,–,507
COc1ccccc1C(=O)Nc1cc2c(cc1N1CCNC[C@H]1C)n(C)c(=O)n2C,479,–,550
CONC(=O)Nc1ccc(-c2sc3c(c2CN(C)Cc2ccccc2)c(=O)n(-c2ccccc2)c(=O)n3Cc2c(F)cccc2F)cc1,531,–,556
CO[C@@H](C(=O)N1Cc2[nH]nc(NC(=O)c3ccc(N4CCN(C)CC4)cc3)c2C1)c1ccccc1,539,–,549
OC[C@H]1O[C@H](C[C@@H]1O)[N]2C=NC3=C2\N=C/NC[C@H]3O,485,–,509
C[N]1N=CN=C1[C@@H]2[C@H](NC3=CC(=CC4=C3\C2=N/NC4=O)F)C5=CC=C(F)C=C5,405,–,415
COc1cc2c(cc1OC)C1CC(=O)C(CC(C)C)CN1CC2 (stereo unspecified),506,–,567
